Reference: US20080160000A1 (priority 2006, published 2008)
Like-named read-outs stand apart in the source and are kept apart here.

Experiments:
Eimeria acervulina = assay: Example 1: chickens infected with Eimeria acervulina, feed test (growth, lesion, OPG, ACI); assay type: in vivo
Procedure: Seven groups (30 chickens/group) of test chickens (type of chickens: chunky, one week of age, male) were prepared.
The test chickens of the first to seventh groups are bred for 12 days by freely feeding the feeds (Table 4) obtained by adding the ingredients to the basal feed (100 mass %) shown in Table 1. The test chickens of the second to seventh groups excluding the first group were infected with oocysts of coccidial protozoa Eimeria acervulina in a ratio of 5.0×10^4 oocysts/chicken in an oral administration manner on the seventh day after the start of the breeding. Next, after the breeding was finished, the test chickens of the groups were dissected, and degrees of lesions in the duodenums were evaluated according to the following evaluation criteria. In addition, on the dissection day, feces of the groups were sampled, and the number of oocysts per gram of the feces (OPG) was measured. OPG scores were determined by OPG values according to the evaluation criteria as follow.

Eimeria maxima = assay: Example 2: chickens infected with Eimeria maxima, feed test (growth, OPG); assay type: in vivo
Procedure: Three groups (20 chickens/group) of tested chickens (type of chickens: chunky, neonatal chick, male) were prepared.
The test chickens of the eighth to tenth groups are bred for 28 days by freely feeding the feeds (Table 6) obtained by adding the ingredients to the basal feed (100 mass %) shown in Table 1. The test chickens of all the groups were infected with oocysts of coccidial protozoa Eimeria maxima in a ratio of 1.5×10^4 oocysts/chicken in an oral administration manner on the twenty-first day after the breeding. On each sixth to eighth day after the infection, the feces of the groups were sampled, and the number of oocysts per gram of the feces (OPG) was measured (as a three-day average value).

clostridium perfringens = assay type: in vivo, chickens; conditions: for Body weight, compared-group comparison / Body weight gain, compared-group comparison / Feed intake, compared-group comparison / Feed conversion ratio, compared-group comparison / Number of clostridium perfringens, compared-group comparison: index, Fifteenth Group = 100

## CC[C@@H](C(=O)[C@@H](C)[C@@H](O)[C@H](C)[C@@H]1O[C@@H]([C@@H](CC)C(=O)O)CC[C@@H]1C)[C@H]1O[C@]2(C=C[C@@H](O)[C@]3(CC[C@@](C)([C@H]4CC[C@](O)(CC)[C@H](C)O4)O3)O2)[C@H](C)C[C@@H]1C [Third group, Salinomycine]
Eimeria acervulina; 0 to 40 points from OPG values per Table 3, average of three tested bodies in each group
  Average OPG score in feces D: 33.3
Eimeria acervulina; ACI = (A + B) − (10C + D)
  ACI (anticoccidial indces): 126
Eimeria acervulina; First group (non-infected basal feed) = 100
  Relative ratio weight gain/initial weight (compared with First group) A: 95.0%
Eimeria acervulina; after 12 days breeding, infected on day 7 with 5.0×10^4 oocysts/chicken
  Average final body weight: 643 g
Eimeria acervulina; in vivo
  Feed conversion ratio: 1.32
  Feed intake: 318 g/chicken
  Survival ratio B: 100.0%
  Weight gain/initial weight ratio: 60.1%
Eimeria acervulina; initial to final weight
  Body weight gain: 242 g/chicken
Eimeria acervulina; lesion in duodenum, 0 to 4 points per Table 2
  Average lesion score C: 3.6
Eimeria maxima; 28 days
  Body weight gain: 1018 g/chicken
  Feed conversion ratio: 1.50
  Feed intake: 1525 g/chicken
Eimeria maxima; 28 days breeding, infected day 21 with 1.5×10^4 oocysts/chicken
  Final body weight: 1054 g/chicken
Eimeria maxima; average on the 6 to 8 days after infection
  Maxima OPG: 3.1 10,000 oocysts/g of feces
Eimeria maxima; in vivo
  Growth ratio: 100(100) %
Eimeria maxima; index, Eighth Group (basal feed) = 100
  Final body weight, compared-group comparison: 117
Eimeria maxima; index, Eighth Group = 100
  Body weight gain, compared-group comparison: 117
  Feed conversion ratio, compared-group comparison: 94
  Feed intake, compared-group comparison: 110
  Growth ratio, compared-group comparison: 100(100)
  Maxima OPG, compared-group comparison: 18

## enramycin [Sixteenth Group]
Clostridium perfringens; 1 week
  Body weight gain: 96 g/chicken
  Feed intake: 118 g/chicken
  Body weight gain, compared-group comparison: 121
  Feed intake, compared-group comparison: 107
Clostridium perfringens; 1 week of age, basal feed with 30% rye
  Body weight: 136 g/chicken
Clostridium perfringens; 1 week of age
  Body weight, compared-group comparison: 114
Clostridium perfringens; 2 weeks
  Body weight gain: 220 g/chicken
  Feed intake: 323 g/chicken
  Body weight gain, compared-group comparison: 132
  Feed intake, compared-group comparison: 140
Clostridium perfringens; 2 weeks of age
  Body weight: 356 g/chicken
  Body weight, compared-group comparison: 124
Clostridium perfringens; 3 weeks
  Body weight gain: 345 g/chicken
  Feed intake: 510 g/chicken
  Body weight gain, compared-group comparison: 135
  Feed intake, compared-group comparison: 124
Clostridium perfringens; 3 weeks of age
  Body weight: 700 g/chicken
  Body weight, compared-group comparison: 130
Clostridium perfringens; First week
  Feed conversion ratio: 1.23
  Feed conversion ratio, compared-group comparison: 89
  Number of clostridium perfringens, compared-group comparison: 34
Clostridium perfringens; First week, cloacal swab
  Number of clostridium perfringens: 2.0 LogCFU/g
Clostridium perfringens; Second week
  Feed conversion ratio: 1.47
  Feed conversion ratio, compared-group comparison: 106
  Number of clostridium perfringens, compared-group comparison: 47
Clostridium perfringens; Second week, cloacal swab
  Number of clostridium perfringens: 2.0 LogCFU/g
Clostridium perfringens; Third week
  Feed conversion ratio: 1.48
  Feed conversion ratio, compared-group comparison: 91
  Number of clostridium perfringens, compared-group comparison: 41
Clostridium perfringens; Third week, cloacal swab
  Number of clostridium perfringens: 2.0 LogCFU/g
Clostridium perfringens; Total
  Feed conversion ratio: 1.44
  Body weight gain, compared-group comparison: 132
  Feed conversion ratio, compared-group comparison: 96
  Feed intake, compared-group comparison: 126
  Number of clostridium perfringens, compared-group comparison: 40
Clostridium perfringens; Total (21 days)
  Body weight gain: 660 g/chicken
  Feed intake: 950 g/chicken
Clostridium perfringens; Total (no unit printed in this row; weekly rows in LogCFU/g)
  Number of clostridium perfringens: 2.0
